Test results from ChEMBL document CHEMBL4422618, “Translational impact of novel widely pharmacological characterized mofezolac-derived COX-1 inhibitors combined with bortezomib on human multiple myeloma cell lines viability” (Eur J Med Chem, 2019).
pIC50: −log10 of the molar value. Activity calls are given as the source filed them. No cut-off for these calls is given here.

What was measured:
[1] = target: T1, Prostaglandin G/H synthase 2 (Homo sapiens, UniProt P35354); assay: Inhibition of human COX2 using arachidonic acid as substrate by colorimetric assay
T1 sequence (P35354 whole entry): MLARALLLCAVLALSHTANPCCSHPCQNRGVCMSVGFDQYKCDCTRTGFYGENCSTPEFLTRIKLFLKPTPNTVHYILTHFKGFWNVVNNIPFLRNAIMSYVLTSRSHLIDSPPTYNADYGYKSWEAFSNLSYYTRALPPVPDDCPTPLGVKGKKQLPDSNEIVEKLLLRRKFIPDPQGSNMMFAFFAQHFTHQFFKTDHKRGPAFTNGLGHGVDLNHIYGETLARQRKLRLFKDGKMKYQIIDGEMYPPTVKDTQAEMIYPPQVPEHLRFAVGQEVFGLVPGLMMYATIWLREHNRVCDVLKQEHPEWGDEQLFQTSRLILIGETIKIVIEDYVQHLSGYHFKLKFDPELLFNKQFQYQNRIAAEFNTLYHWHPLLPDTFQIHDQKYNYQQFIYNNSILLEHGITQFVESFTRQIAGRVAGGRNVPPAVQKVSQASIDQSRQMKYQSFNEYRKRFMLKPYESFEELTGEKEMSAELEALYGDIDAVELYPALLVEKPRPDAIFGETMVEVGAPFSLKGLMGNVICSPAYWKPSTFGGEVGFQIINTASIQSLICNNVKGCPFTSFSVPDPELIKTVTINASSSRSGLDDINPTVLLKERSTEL

[2] = target: T2, Prostaglandin G/H synthase 1 (Ovis aries) (UniProt P05979); assay: Inhibition of ovine COX1 at 50 uM using arachidonic acid as substrate by colorimetric assay relative to control
T2 sequence (whole entry): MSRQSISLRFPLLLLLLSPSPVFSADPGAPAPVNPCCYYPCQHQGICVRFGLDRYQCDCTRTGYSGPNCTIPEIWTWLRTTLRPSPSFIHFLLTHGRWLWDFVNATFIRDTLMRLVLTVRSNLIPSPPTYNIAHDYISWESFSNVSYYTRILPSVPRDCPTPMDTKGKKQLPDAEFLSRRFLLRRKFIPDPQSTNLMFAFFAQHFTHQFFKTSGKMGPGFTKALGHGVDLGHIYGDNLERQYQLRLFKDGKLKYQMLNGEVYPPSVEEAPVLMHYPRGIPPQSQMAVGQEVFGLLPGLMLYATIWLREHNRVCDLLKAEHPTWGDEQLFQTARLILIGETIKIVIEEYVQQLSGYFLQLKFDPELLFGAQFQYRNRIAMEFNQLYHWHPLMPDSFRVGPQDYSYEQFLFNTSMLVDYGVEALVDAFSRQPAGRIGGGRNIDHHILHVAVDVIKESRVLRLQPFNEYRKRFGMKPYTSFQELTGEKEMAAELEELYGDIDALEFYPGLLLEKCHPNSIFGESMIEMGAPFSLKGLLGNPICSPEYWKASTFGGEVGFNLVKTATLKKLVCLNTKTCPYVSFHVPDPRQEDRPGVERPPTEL

Platelet = assay: Antiplatelet activity in human platelet rich plasma assessed as inhibition of arachidonic acid-induced platelet aggregation preincubated for 2 mins followed by arachidonic acid addition by turbidimetric method; type: functional, cell-based
Plasma [3] = assay: Anticoagulant activity in human platelet poor plasma assessed as activated partial thromboplastin time at 100 uM incubated for 15 mins at room temperature and subsequent incubation for 2 mins at 37 degreeC followed by cephalin addition and measured after 2 mins for every secs in presence of CaCl2; type: functional
Plasma [4] = assay: Anticoagulant activity in human platelet poor plasma assessed as prothrombin time at 100 uM incubated for 15 mins at room temperature and subsequent incubation for 2 mins at 37 degreeC followed by PBS addition and measured after 3 mins for every secs in presence of calcium thromboplastin; type: functional
[5] = Hemolytic activity in erythrocytes (unknown origin) at 100 uM after 3 hrs by spectrophotometric analysis; type: ADME, cell-based, Erythrocyte; details: read-out: Activity
[6] = Genotoxicity in Escherichia coli PQ35 at 500 uM after overnight incubation by SOS chromotest; type: toxicity
NCI-H929 [7] = assay: Cytotoxicity against human NCI-H929 cells assessed as reduction in cell viability at 42 nM after 48 hrs by CCK8 assay; type: functional, cell-based
RPMI-8226 [8] = assay: Cytotoxicity against human RPMI8226 cells assessed as reduction in cell viability at 1.7 uM after 48 hrs by CCK8 assay relative to control; type: functional
NCI-H929 [9] = assay: Potentiation of bortezomib-induced cytotoxicity against human NCI-H929 cells assessed as reduction in cell viability at 42 nM after 48 hrs in presence of bortezomib by CCK8 assay; type: functional, cell-based
RPMI-8226 [10] = assay: Potentiation of bortezomib-induced cytotoxicity against human RPMI8226 cells assessed as reduction in cell viability at 42 nM after 48 hrs in presence of bortezomib by CCK8 assay; type: functional
RPMI-8226 [11] = assay: Cell cycle arrest in human RPMI8226 cells assessed as accumulation at G0/G1 phase at 42 nM after 48 hrs by propidium iodide/RNase staining based flow cytometric method; type: functional
RPMI-8226 [12] = assay: Cell cycle arrest in human RPMI8226 cells assessed as accumulation at S phase at 42 nM after 48 hrs by propidium iodide/RNase staining based flow cytometric method; type: functional
NCI-H929 [13] = assay: Induction of apoptosis in human NCI-H929 cells assessed as early apoptotic cells at 42 nM after 48 hrs by Annexin-V/propidium iodide staining based flow cytometric method (reference value: 17.1%); type: functional
NCI-H929 [14] = assay: Induction of apoptosis in human NCI-H929 cells assessed as late apoptotic cells at 42 nM after 48 hrs by Annexin-V/propidium iodide staining based flow cytometric method (reference value: 0.23%); type: functional
NCI-H929 [15] = assay: Induction of apoptosis in human NCI-H929 cells assessed as late apoptotic cells at 42 nM after 48 hrs in presence of bortezomib by Annexin-V/propidium iodide staining based flow cytometric method (reference value: 0.23%); type: functional
NCI-H929 [16] = assay: Induction of apoptosis in human NCI-H929 cells assessed as viable cells at 42 nM after 48 hrs in presence of bortezomib by Annexin-V/propidium iodide staining based flow cytometric method (reference value: 82.6%); type: functional; details: NCI-H929, 48 h, read-out: Activity
RPMI-8226 [17] = assay: Induction of apoptosis in human RPMI8226 cells assessed as early apoptotic cells at 42 nM after 48 hrs in presence of bortezomib by Annexin-V/propidium iodide staining based flow cytometric method (reference value: 1.05%); type: functional
RPMI-8226 [18] = assay: Induction of apoptosis in human RPMI8226 cells assessed as late apoptotic cells at 42 nM after 48 hrs in presence of bortezomib by Annexin-V/propidium iodide staining based flow cytometric method (reference value: 0.21%); type: functional
RPMI-8226 [19] = assay: Induction of apoptosis in human RPMI8226 cells assessed as viable cells at 42 nM after 48 hrs in presence of bortezomib by Annexin-V/propidium iodide staining based flow cytometric method (reference value: 98.7%); type: functional; details: RPMI-8226, 48 h, read-out: Activity
RPMI-8226 [20] = assay: Cell cycle arrest in human RPMI8226 cells assessed as reduction in accumulation at G2/M phase at 42 nM in presence of bortezomib after 48 hrs by propidium iodide/RNase staining based flow cytometric method relative to bortezomib; type: functional

For C=Cc1onc(-c2ccc(OC)cc2)c1-c1ccc(OC)cc1, the pIC50 [1] was < 4.30, the inhibition [2] was 100% and the pIC50 (Platelet) was 6.20. For the same compound, the APTT (Plasma [3]) was 51.2 s, the PT (Plasma [4]) was 13.7 s and the hemolysis at 3 h, 100 µM [5] was 0%. For the same compound, the Activity [6] was “Non-Toxic”, the Activity (NCI-H929 [7]) was “inactive” and the Activity (RPMI-8226 [8]) was 4%. For the same compound, the Activity (NCI-H929 [9]) was “inactive”, the Activity (RPMI-8226 [10]) was 66% and the Activity (RPMI-8226 [11]) was “inactive”. The Activity (RPMI-8226 [12]) was “inactive”, the Activity (NCI-H929 [13]) was 16.9% and the Activity (NCI-H929 [14]) was 0.11%. It also gave an Activity (NCI-H929 [15]) of 0.22%, a viability at 0.042 µM (NCI-H929 [16]) of 39.2% and an Activity (RPMI-8226 [17]) of 9.68%. The Activity (RPMI-8226 [18]) was 0.37%, the viability at 0.042 µM (RPMI-8226 [19]) was 89.9% and the Activity (RPMI-8226 [20]) was “Active”.
